According to patent US20120245108A1, “METHOD OF MODULATING COMPLEMENT FACTOR B (CFB) EXPRESSION IN CELLS” (KAOHSIUNG MEDICAL UNIVERSITY, priority 2011, published 2012):

Columns and labels:
IL-6 = IL-6 protein production in ARPE-19 cell culture supernatants by ELISA; assay type: cell-based, human; conditions: TA 25 μM, 10 mJ/cm^2 UVB, 24 hours, ARPE-19 cells
Protocol: (§1) ARPE-19 (CRL-2302, human retinal pigment epithelial cells, American Type Culture Collection, Manassas, Va.) cells were cultured in 1:1 mixture of Dulbecco's modified Eagle's medium and HAM F-12 nutrient mixture supplemented with 10% fetal bovine serum at 37° C., 5% CO2, and 90% relative humidity. Confluent cells (90% confluence) were used throughout the experiments. Culture materials were obtained from Gibco-BRL (Rockville, Md.). Tannic acid, AG490 and all other reagents were obtained from Sigma Chemical Co. (St. Louis, Mo.).
(§2) The source of UVB radiation was performed using the EL series of UV lamp (UVP Inc., San Gabriel, Calif., USA). One hundred percent energy emission was at wavelength 302 nm with a radiation intensity of 1.04 mW/cm^2 in a lamp and a target distance of 15 cm was measured by a UVX Digital Radiometer (UVP Inc.).
ARPE-19 cells were plated about 200,000 cells in a 3-cm dish and cultured for 18-24 hours. Cells were exposed to UVB radiation for 24 hours, 1 ml aliquots of cell culture supernatants were drawn off and frozen at −80° C. ELISAs were carried out with the OptEIA human IL-6 ELISA kit (BD Pharmingen) according to the manufacturer's instructions. […] Freshly diluted rIL-6 which is useful as a standard control was used to generate a standard curve on each plate analyzed. Plates were read at 450 nm using a spectrophotometric plate reader. […]

phospho-STAT3(Tyr705) = test: Phospho-STAT3(Tyr705) immunoblotting in ARPE-19 cells; assay type: cell-based, human
Protocol: as §1, §2
Total cell lysates were resolved by 10% sodium dodecyl sulfate-polyacryl amide gel electrophoresis, transferred to membranes and blocked, and then probed phospho-STAT3(Tyr705) and STAT3 (Cell Signaling Technology, Danvers, Mass.) antibodies. To control for protein loading, all blots were probed with GAPDH (Millipore, Billerica, Mass.) as well. The bands were detected using the enhanced chemiluminescence system (Millipore, Billerica, Mass.).

CFB mRNA = CFB mRNA expression in ARPE-19 cells by real-time RT-PCR; assay type: cell-based, human; conditions: for UVB-induced CFB mRNA expression: 10 mJ/cm^2 UVB, 24 h, ARPE-19 cells, TA 25 μM, AG490 40 μM in 0.2% DMSO, normalized to GAPDH
Protocol: as §1, §2
The total RNA was isolated from ARPE-19 cells and cells exposed to UVB radiation (5-15 mJ/cm^2) for 24 hr using TRIzol Reagent (invitrogen). One μg of total RNA was subject to reverse transcriptase RT-PCR by using RT-PCR kit (Applied Biosystems). The primers used for detecting mRNA for IL-6 were 5′-CCTGCAAG ACCATCGACATG-3′ (forward, SEQ ID NO. 1) and 5′-[…]-3′ (reverse, SEQ ID NO. 2); CFB were 5′-[…]-3′ (forward, SEQ ID NO. 3) and 5′-[…]-3 (reverse, SEQ ID NO. 4); STAT3 were 5′-[…]-3′ (forward, SEQ ID NO. 5) and 5′-[…]-3′ (reverse, SEQ ID NO. 6); JAK2 were 5′-GCTCAGTGGCGGCATGAT-3′ (forward, SEQ ID NO. 7) and 5′-[…]-3′ (reverse, SEQ ID NO. 8); GAPDH were 5′-AACAGCGACACCCATCCTC-3′ (forward, SEQ ID NO. 9) and 5′-[…]-3′ (reverse, SEQ ID NO. 10). Real-time PCR was performed in a Gene Amp 7900® Sequence Detection System SDS (Applied Biosystems, Foster City, Calif., USA) using SYBR® Green PCR Master Mix Applied Biosystems. The relative gene expression is the comparative CT method. Each sample was normalized on the basis of its GAPDH content according to the formula 2^−ΔΔCT.

JAK/STAT signaling = conditions: Samardzija et al. 2006; cited from earlier work

Structure (SMILES) | attenuation of UVB-induced IL-6 protein production (IL-6) | UVB-induced STAT3 phosphorylation on Tyr705 (phospho-STAT3(Tyr705); TA 25 μM, UVB, 24 hours, ARPE-19 (RPE) cells) | STAT3 phosphorylation without UV radiation (phospho-STAT3(Tyr705); without UV radiation) | UVB-induced CFB mRNA expression (CFB mRNA) | CFB expression without UV radiation (CFB mRNA; without UV radiation) | JAK/STAT signaling (JAK/STAT signaling) | retinal degeneration after bright light exposure (JAK/STAT signaling) | STAT3 phosphorylation on Tyr705 (phospho-STAT3(Tyr705); AG490 40 μM, data not shown)
O=C(OC[C@H]1O[C@@H](OC(=O)c2cc(O)c(O)c(OC(=O)c3cc(O)c(O)c(O)c3)c2)[C@H](OC(=O)c2cc(O)c(O)c(OC(=O)c3cc(O)c(O)c(O)c3)c2)[C@@H](OC(=O)c2cc(O)c(O)c(OC(=O)c3cc(O)c(O)c(O)c3)c2)[C@@H]1OC(=O)c1cc(O)c(O)c(OC(=O)c2cc(O)c(O)c(O)c2)c1)c1cc(O)c(O)c(OC(=O)c2cc(O)c(O)c(O)c2)c1 [TA, Tannic acid] | approximately 40% | substantially attenuated | reduce | attenuate | reduce |  |  | 
N#C/C(=C/c1ccc(O)c(O)c1)C(=O)NCc1ccccc1 [AG490, reference compound] |  |  |  | partly attenuated |  | inhibit | prevent | inhibit
